Numbered stars: 1 amine (or outer) side, 2 acyl side, 3 side chain; on linkers, the order of the positions; unused ones are H or OH. Square brackets hold non-standard residues; d marks the D form. Peptide text beside a SMILES is read from it. * marks the point of attachment. Dip = N[C@H](C(=O)O)C(c1ccccc1)c1ccccc1; X4 = O=C(C(=O)[*:2])[C@H](CC(F)F)N[*:1]; X3 = O=C(c1nc2ccccc2s1)[C@H](CC(F)F)N*; X6 = O=C(c1nc2ccccc2o1)[C@H](CC(F)F)N*; Abu(4,4-F2) = N[C@@H](CC(F)F)C(=O)O; X5 = O=C([C@@H](CC(F)F)N[*:1])[*:2]; X1 = O=C(c1nccs1)[C@H](CC(F)F)N*; X2 = COC(=O)C(=O)[C@H](CC(F)F)N*; X7 = O=C(O)C(=O)[C@H](CC(F)F)N*; Cha = N[C@@H](CC1CCCCC1)C(=O)O; AllylGly = C=CC[C@H](N)C(=O)O; Abu = CC[C@H](N)C(=O)O; NHBn = c1ccc(CN*)cc1
Biological target: Hepatitis C virus serine protease, NS3/NS4A (Hepatitis C virus, UniProt A3EZI9+D2K2A8)
Sequence (D2K2A8 whole entry): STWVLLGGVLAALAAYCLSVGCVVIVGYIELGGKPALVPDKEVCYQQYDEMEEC
Sequence (A3EZI9 whole entry): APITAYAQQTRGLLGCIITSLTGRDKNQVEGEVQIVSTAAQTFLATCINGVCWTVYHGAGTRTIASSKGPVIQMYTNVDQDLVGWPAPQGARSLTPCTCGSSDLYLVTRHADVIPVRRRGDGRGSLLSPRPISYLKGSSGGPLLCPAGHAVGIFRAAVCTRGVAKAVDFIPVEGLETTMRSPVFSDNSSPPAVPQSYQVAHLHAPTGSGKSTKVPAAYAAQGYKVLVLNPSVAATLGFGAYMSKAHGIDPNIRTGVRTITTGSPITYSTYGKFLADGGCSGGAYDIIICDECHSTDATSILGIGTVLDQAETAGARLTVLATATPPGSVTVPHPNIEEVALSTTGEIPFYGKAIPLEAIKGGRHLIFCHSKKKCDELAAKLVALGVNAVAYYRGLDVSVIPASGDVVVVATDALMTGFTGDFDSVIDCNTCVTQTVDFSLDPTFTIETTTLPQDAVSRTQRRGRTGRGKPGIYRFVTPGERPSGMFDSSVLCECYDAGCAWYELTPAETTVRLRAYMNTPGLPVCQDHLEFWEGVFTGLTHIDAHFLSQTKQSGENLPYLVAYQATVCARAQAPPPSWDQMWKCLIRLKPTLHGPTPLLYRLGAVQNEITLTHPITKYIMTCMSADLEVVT
Assay: Inhibition of hepatitis C virus (HCV) NS3/NS4A serine protease
Format: protein-complex assay, Hepacivirus hominis

Compound | Ki
CC(=O)N[C@@H](CC(=O)O)C(=O)N[C@@H](CCC(=O)O)C(=O)N[C@H](C(=O)N[C@@H](CCC(=O)O)C(=O)N[C@@H](CC1CCCCC1)C(=O)N[C@@H](CC(F)F)C(=O)c1nc2ccccc2s1)C(c1ccccc1)c1ccccc1 (Ac-DE[Dip]E[Cha]-X3) | 150 nM
C=CC[C@H](NC(=O)[C@H](CC1CCCCC1)NC(=O)[C@H](CCC(=O)O)NC(=O)[C@@H](NC(=O)[C@H](CCC(=O)O)NC(=O)[C@H](CC(=O)O)NC(C)=O)C(c1ccccc1)c1ccccc1)C(=O)O (Ac-DE[Dip]E[Cha][AllylGly]-OH) | 100 nM
CC(=O)N[C@@H](CC(=O)O)C(=O)N[C@@H](CCC(=O)O)C(=O)N[C@H](C(=O)N[C@@H](CCC(=O)O)C(=O)N[C@@H](CC1CCCCC1)C(=O)N[C@@H](CS)C(=O)O)C(c1ccccc1)c1ccccc1 (Ac-DE[Dip]E[Cha]C-OH) | 40 nM
CC(=O)N[C@@H](CC(=O)O)C(=O)N[C@@H](CCC(=O)O)C(=O)N[C@H](C(=O)N[C@@H](CCC(=O)O)C(=O)N[C@@H](CC1CCCCC1)C(=O)N[C@@H](CC(F)F)C(=O)c1nccs1)C(c1ccccc1)c1ccccc1 (Ac-DE[Dip]E[Cha]-X1) | 1500 nM
CC(=O)N[C@@H](CC(=O)O)C(=O)N[C@@H](CCC(=O)O)C(=O)N[C@H](C(=O)N[C@@H](CCC(=O)O)C(=O)N[C@@H](CC1CCCCC1)C(=O)N[C@@H](CC(F)F)C(=O)c1nc2ccccc2o1)C(c1ccccc1)c1ccccc1 (Ac-DE[Dip]E[Cha]-X6) | 600 nM
CC[C@H](NC(=O)[C@H](CC1CCCCC1)NC(=O)[C@H](CCC(=O)O)NC(=O)[C@@H](NC(=O)[C@H](CCC(=O)O)NC(=O)[C@H](CC(=O)O)NC(C)=O)C(c1ccccc1)c1ccccc1)C(=O)O (Ac-DE[Dip]E[Cha][Abu]-OH) | 700 nM
CC(=O)N[C@@H](CC(=O)O)C(=O)N[C@@H](CCC(=O)O)C(=O)N[C@H](C(=O)N[C@@H](CCC(=O)O)C(=O)N[C@@H](CC1CCCCC1)C(=O)N[C@H](CC(F)F)C(=O)O)C(c1ccccc1)c1ccccc1 (Ac-DE[Dip]E[Cha][X5]-OH) | 640 nM
CC(=O)N[C@@H](CC(=O)O)C(=O)N[C@@H](CCC(=O)O)C(=O)N[C@H](C(=O)N[C@@H](CCC(=O)O)C(=O)N[C@@H](CC1CCCCC1)C(=O)N[C@@H](CC(F)F)C(=O)O)C(c1ccccc1)c1ccccc1 (Ac-DE[Dip]E[Cha][Abu(4,4-F2)]-OH) | 30 nM

Stronger by Ki, values ahead:

Ki | Compound
7 nM | C=CC[C@@H](C=O)NC(=O)[C@H](CC1CCCCC1)NC(=O)[C@H](CCC(=O)O)NC(=O)[C@@H](NC(=O)[C@H](CCC(=O)O)NC(=O)[C@H](CC(=O)O)NC(C)=O)C(c1ccccc1)c1ccccc1 (Ac-DE[Dip]E[Cha][AllylGly]-aldehyde)
2 nM | COC(=O)C(=O)[C@H](CC(F)F)NC(=O)[C@H](CC1CCCCC1)NC(=O)[C@H](CCC(=O)O)NC(=O)[C@@H](NC(=O)[C@H](CCC(=O)O)NC(=O)[C@H](CC(=O)O)NC(C)=O)C(c1ccccc1)c1ccccc1 (Ac-DE[Dip]E[Cha]-X2)
1.5 nM | CC(=O)N[C@@H](CC(=O)O)C(=O)N[C@@H](CCC(=O)O)C(=O)N[C@H](C(=O)N[C@@H](CCC(=O)O)C(=O)N[C@@H](CC1CCCCC1)C(=O)N[C@@H](CC(F)F)C(=O)C(=O)NCc1ccccc1)C(c1ccccc1)c1ccccc1 (Ac-DE[Dip]E[Cha][X4]-NHBn)
0.5 nM | CC(=O)N[C@@H](CC(=O)O)C(=O)N[C@@H](CCC(=O)O)C(=O)N[C@H](C(=O)N[C@@H](CCC(=O)O)C(=O)N[C@@H](CC1CCCCC1)C(=O)N[C@H](C=O)CC(F)F)C(c1ccccc1)c1ccccc1 (Ac-DE[Dip]E[Cha][Abu(4,4-F2)]-aldehyde)
0.01 nM | CC(=O)N[C@@H](CC(=O)O)C(=O)N[C@@H](CCC(=O)O)C(=O)N[C@H](C(=O)N[C@@H](CCC(=O)O)C(=O)N[C@@H](CC1CCCCC1)C(=O)N[C@@H](CC(F)F)C(=O)C(=O)O)C(c1ccccc1)c1ccccc1 (Ac-DE[Dip]E[Cha]-X7)
